Laboratory results reported in ChEMBL document CHEMBL3286308, “Potent and orally efficacious bisthiazole-based histone deacetylase inhibitors” (ACS Med Chem Lett, 2014).

Target: Histone deacetylase 1 (Homo sapiens, UniProt Q13547)
Sequence (Q13547 whole entry): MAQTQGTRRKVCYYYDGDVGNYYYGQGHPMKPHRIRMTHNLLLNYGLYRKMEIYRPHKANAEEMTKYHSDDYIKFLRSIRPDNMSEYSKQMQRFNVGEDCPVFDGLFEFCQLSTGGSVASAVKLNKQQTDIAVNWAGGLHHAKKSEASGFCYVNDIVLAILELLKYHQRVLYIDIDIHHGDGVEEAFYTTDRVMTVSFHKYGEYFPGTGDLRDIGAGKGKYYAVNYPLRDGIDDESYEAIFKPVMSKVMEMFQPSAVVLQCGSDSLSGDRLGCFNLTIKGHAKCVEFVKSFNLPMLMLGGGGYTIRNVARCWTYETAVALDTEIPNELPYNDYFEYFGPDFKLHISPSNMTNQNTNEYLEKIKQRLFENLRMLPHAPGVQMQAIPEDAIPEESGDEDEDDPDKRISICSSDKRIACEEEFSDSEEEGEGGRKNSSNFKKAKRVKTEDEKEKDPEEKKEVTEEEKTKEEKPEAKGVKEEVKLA

SMILES	IC50 [µM]
CCCCCCCC(=O)SCC/C=C/[C@@H]1CC(=O)NCc2nc(cs2)-c2nc(cs2)C(=O)N[C@@H](C(C)C)C(=O)O1	2
CC(C)[C@H](NC(=O)[C@]1(C)CSC(c2cscn2)=N1)C(=O)OC/C=C/CCS	16.8
Cc1nc(C2=N[C@](C)(C(=O)N[C@H](C(=O)OC/C=C/CCS)C(C)C)CS2)cs1	13.9
CCCCCCCC(=O)SCC/C=C/[C@@H]1CC(=O)NCc2nc(cs2)C2=N[C@@](C)(CS2)C(=O)N[C@@H](C(C)C)C(=O)O1 [LARGAZOLE]	0.0137
